Data taken from patent US7652011B2, “4-[(arylmethyl)aminomethyl]piperidine derivatives, their preparation and their therapeutic application” (sanofi-aventis, priority 2003, dated 2010).

Cn1cccc1CNCC1(c2cccc(C(F)(F)F)c2)CCN(C(=O)CN2CCN(c3cnccn3)CC2)CC1 [Compound 1, [(1-Methyl-1H-pyrrol-2-yl)methyl][[1-[(4-pyrazin-2-ylpiperazin-1-yl)acetyl]-4-[3-(trifluoromethyl)phenyl]piperidin-4-yl]methyl]amine]
melting point: 104 to 105 °C
